Legend:
[1] = test system: HL-60(TB); test: NCI In-Vitro Testing, Leukemia; format: cell-based
[2] = test system: COLO 205; test: NCI In-Vitro Testing, Colon Cancer; format: cell-based
[3] = test system: 785-0; test: NCI In-Vitro Testing, Renal Cancer; format: cell-based
[4] = test system: DU-145; test: NCI In-Vitro Testing, Prostate Cancer; format: cell-based
[5] = test system: UO-31; test: NCI In-Vitro Testing, Renal Cancer; format: cell-based
[6] = test system: OVCAR-6; test: NCI In-Vitro Testing, Ovarian Cancer; format: cell-based
[7] = test system: MDA-MB-435; test: NCI In-Vitro Testing, Breast Cancer; format: cell-based
[8] = test system: M14; test: NCI In-Vitro Testing, Melanoma; format: cell-based
[9] = test system: UACC-62; test: NCI In-Vitro Testing, Melanoma; format: cell-based
[10] = test system: UACC-257; test: NCI In-Vitro Testing, Melanoma; format: cell-based
[11] = test system: SK-MEL-2; test: NCI In-Vitro Testing, Melanoma; format: cell-based
[12] = test system: AS45/ATCC; test: NCI In-Vitro Testing, Non-Small Cell Lung Cancer; format: cell-based
[13] = target: EGFR kinase (Homo sapiens (Human), UniProt P00533); test: EGFR kinase inhibition; format: biochemical; conditions: Table 3; read-out: EGFR kinase
Chain of EGFR kinase (P00533 25-1210): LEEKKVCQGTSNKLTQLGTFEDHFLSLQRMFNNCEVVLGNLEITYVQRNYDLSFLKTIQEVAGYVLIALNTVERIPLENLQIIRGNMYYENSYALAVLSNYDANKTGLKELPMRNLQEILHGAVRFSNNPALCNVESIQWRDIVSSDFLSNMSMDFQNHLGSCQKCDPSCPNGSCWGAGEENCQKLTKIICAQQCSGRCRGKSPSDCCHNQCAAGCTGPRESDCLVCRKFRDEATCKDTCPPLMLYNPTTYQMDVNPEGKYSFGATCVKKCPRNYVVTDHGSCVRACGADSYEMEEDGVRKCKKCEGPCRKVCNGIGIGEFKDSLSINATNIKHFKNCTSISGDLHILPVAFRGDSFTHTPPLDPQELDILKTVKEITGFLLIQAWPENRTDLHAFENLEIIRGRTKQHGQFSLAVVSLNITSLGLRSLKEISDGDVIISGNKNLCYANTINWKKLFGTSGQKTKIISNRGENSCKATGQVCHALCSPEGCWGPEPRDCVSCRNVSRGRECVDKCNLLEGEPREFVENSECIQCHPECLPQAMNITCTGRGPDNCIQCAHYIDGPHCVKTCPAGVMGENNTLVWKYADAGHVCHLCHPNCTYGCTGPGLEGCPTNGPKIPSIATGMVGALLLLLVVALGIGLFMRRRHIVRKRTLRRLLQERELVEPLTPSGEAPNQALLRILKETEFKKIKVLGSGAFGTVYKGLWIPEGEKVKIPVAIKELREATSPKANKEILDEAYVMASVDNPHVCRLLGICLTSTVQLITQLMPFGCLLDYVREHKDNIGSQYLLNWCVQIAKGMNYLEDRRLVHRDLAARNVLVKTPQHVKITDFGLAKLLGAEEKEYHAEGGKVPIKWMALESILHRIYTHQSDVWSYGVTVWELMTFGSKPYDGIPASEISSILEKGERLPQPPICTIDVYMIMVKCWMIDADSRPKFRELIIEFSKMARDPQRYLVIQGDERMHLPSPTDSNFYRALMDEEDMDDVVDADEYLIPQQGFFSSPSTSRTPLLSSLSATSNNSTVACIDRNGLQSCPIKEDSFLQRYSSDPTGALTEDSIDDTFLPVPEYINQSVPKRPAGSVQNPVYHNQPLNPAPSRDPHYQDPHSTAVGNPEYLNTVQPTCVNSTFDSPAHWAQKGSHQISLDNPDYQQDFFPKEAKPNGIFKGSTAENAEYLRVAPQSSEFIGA

[14] = test system: HOP-92; test: NCI In-Vitro Testing, Non-Small Cell Lung Cancer; format: cell-based
[15] = test system: IGROV1; test: NCI In-Vitro Testing, Ovarian Cancer; format: cell-based
[16] = test system: CAKI-1; test: NCI In-Vitro Testing, Renal Cancer; format: cell-based
[17] = test system: HCT-116; test: NCI In-Vitro Testing, Colon Cancer; format: cell-based
[18] = test system: NCI-H322M; test: NCI In-Vitro Testing, Non-Small Cell Lung Cancer; format: cell-based
[19] = A431 cytotoxicity assay; format: cell-based; conditions: human, A431 cells; Table 3

Nc1nc2c(c(Nc3ccc(Cl)cc3)n1)-c1ccccc1C2 [AAG145-136]
GI50 [1]: 1.50E−7 Molar
LC50 [1]: >1.00E−4 Molar
TGI [1]: >1.00E−4 Molar
Percent Growth ([1]; Log10 Concentration −4.0 Molar): 12%
Percent Growth ([1]; Log10 Concentration −5.0 Molar): 13%
Percent Growth ([1]; Log10 Concentration −6.0 Molar): 23%
Percent Growth ([1]; Log10 Concentration −7.0 Molar): 56%
Percent Growth ([1]; Log10 Concentration −8.0 Molar): 87%
GI50 [2]: 6.38E−7 Molar
LC50 [2]: >1.00E−4 Molar
TGI [2]: >1.00E−4 Molar
Percent Growth ([2]; Log10 Concentration −4.0 Molar): 11%
Percent Growth ([2]; Log10 Concentration −5.0 Molar): 11%
Percent Growth ([2]; Log10 Concentration −6.0 Molar): 41%
Percent Growth ([2]; Log10 Concentration −7.0 Molar): 86%
Percent Growth ([2]; Log10 Concentration −8.0 Molar): 99%
GI50 [3]: 5.14E−7 Molar
LC50 [3]: >1.00E−4 Molar
TGI [3]: >1.00E−4 Molar
Percent Growth ([3]; Log10 Concentration −4.0 Molar): 16%
Percent Growth ([3]; Log10 Concentration −5.0 Molar): 26%
Percent Growth ([3]; Log10 Concentration −6.0 Molar): 31%
Percent Growth ([3]; Log10 Concentration −7.0 Molar): 97%
Percent Growth ([3]; Log10 Concentration −8.0 Molar): 102%
GI50 [4]: 2.12E−7 Molar
LC50 [4]: >1.00E−4 Molar
TGI [4]: >1.00E−4 Molar
Percent Growth ([4]; Log10 Concentration −4.0 Molar): 7%
Percent Growth ([4]; Log10 Concentration −5.0 Molar): 18%
Percent Growth ([4]; Log10 Concentration −6.0 Molar): 37%
Percent Growth ([4]; Log10 Concentration −7.0 Molar): 56%
Percent Growth ([4]; Log10 Concentration −8.0 Molar): 95%
GI50 [5]: 7.90E−7 Molar
LC50 [5]: >1.00E−4 Molar
TGI [5]: >1.00E−4 Molar
Percent Growth ([5]; Log10 Concentration −4.0 Molar): 31%
Percent Growth ([5]; Log10 Concentration −5.0 Molar): 31%
Percent Growth ([5]; Log10 Concentration −6.0 Molar): 46%
Percent Growth ([5]; Log10 Concentration −7.0 Molar): 88%
Percent Growth ([5]; Log10 Concentration −8.0 Molar): 105%
GI50 [6]: 2.16E−7 Molar
LC50 [6]: >1.00E−4 Molar
TGI [6]: >1.00E−4 Molar
Percent Growth ([6]; Log10 Concentration −4.0 Molar): 18%
Percent Growth ([6]; Log10 Concentration −5.0 Molar): 25%
Percent Growth ([6]; Log10 Concentration −6.0 Molar): 36%
Percent Growth ([6]; Log10 Concentration −7.0 Molar): 57%
Percent Growth ([6]; Log10 Concentration −8.0 Molar): 102%
GI50 [7]: 5.54E−7 Molar
LC50 [7]: >1.00E−4 Molar
TGI [7]: >1.00E−4 Molar
Percent Growth ([7]; Log10 Concentration −4.0 Molar): 33%
Percent Growth ([7]; Log10 Concentration −5.0 Molar): 20%
Percent Growth ([7]; Log10 Concentration −6.0 Molar): 31%
Percent Growth ([7]; Log10 Concentration −7.0 Molar): 104%
Percent Growth ([7]; Log10 Concentration −8.0 Molar): 104%
GI50 [8]: 4.31E−7 Molar
LC50 [8]: >1.00E−4 Molar
TGI [8]: >1.00E−4 Molar
Percent Growth ([8]; Log10 Concentration −4.0 Molar): 34%
Percent Growth ([8]; Log10 Concentration −5.0 Molar): 21%
Percent Growth ([8]; Log10 Concentration −6.0 Molar): 31%
Percent Growth ([8]; Log10 Concentration −7.0 Molar): 84%
Percent Growth ([8]; Log10 Concentration −8.0 Molar): 102%
GI50 [9]: 6.41E−7 Molar
LC50 [9]: >1.00E−4 Molar
TGI [9]: >1.00E−4 Molar
Percent Growth ([9]; Log10 Concentration −4.0 Molar): 32%
Percent Growth ([9]; Log10 Concentration −5.0 Molar): 27%
Percent Growth ([9]; Log10 Concentration −6.0 Molar): 38%
Percent Growth ([9]; Log10 Concentration −7.0 Molar): 99%
Percent Growth ([9]; Log10 Concentration −8.0 Molar): 99%
GI50 [10]: 6.45E−8 Molar
LC50 [10]: >1.00E−4 Molar
TGI [10]: >1.00E−4 Molar
Percent Growth ([10]; Log10 Concentration −4.0 Molar): 6%
Percent Growth ([10]; Log10 Concentration −5.0 Molar): 21%
Percent Growth ([10]; Log10 Concentration −6.0 Molar): 33%
Percent Growth ([10]; Log10 Concentration −7.0 Molar): 46%
Percent Growth ([10]; Log10 Concentration −8.0 Molar): 102%
GI50 [11]: 5.58E−7 Molar
LC50 [11]: >1.00E−4 Molar
TGI [11]: >1.00E−4 Molar
Percent Growth ([11]; Log10 Concentration −4.0 Molar): 16%
Percent Growth ([11]; Log10 Concentration −5.0 Molar): 27%
Percent Growth ([11]; Log10 Concentration −6.0 Molar): 35%
Percent Growth ([11]; Log10 Concentration −7.0 Molar): 95%
Percent Growth ([11]; Log10 Concentration −8.0 Molar): 98%
GI50 [12]: 4.34E−8 Molar
LC50 [12]: >1.00E−4 Molar
TGI [12]: >1.00E−4 Molar
Percent Growth ([12]; Log10 Concentration −4.0 Molar): 7%
Percent Growth ([12]; Log10 Concentration −5.0 Molar): 15%
Percent Growth ([12]; Log10 Concentration −6.0 Molar): 21%
Percent Growth ([12]; Log10 Concentration −7.0 Molar): 33%
Percent Growth ([12]; Log10 Concentration −8.0 Molar): 30%
IC50 [13]: 26 µM
GI50 [14]: 1.81E−5 Molar
LC50 [14]: >1.00E−4 Molar
TGI [14]: >1.00E−4 Molar
Percent Growth ([14]; Log10 Concentration −4.0 Molar): 15%
Percent Growth ([14]; Log10 Concentration −5.0 Molar): 62%
Percent Growth ([14]; Log10 Concentration −6.0 Molar): 74%
Percent Growth ([14]; Log10 Concentration −7.0 Molar): 96%
Percent Growth ([14]; Log10 Concentration −8.0 Molar): 100%
GI50 [15]: 2.87E−7 Molar
LC50 [15]: >1.00E−4 Molar
TGI [15]: >1.00E−4 Molar
Percent Growth ([15]; Log10 Concentration −4.0 Molar): 11%
Percent Growth ([15]; Log10 Concentration −5.0 Molar): 6%
Percent Growth ([15]; Log10 Concentration −6.0 Molar): 24%
Percent Growth ([15]; Log10 Concentration −7.0 Molar): 72%
Percent Growth ([15]; Log10 Concentration −8.0 Molar): 93%
GI50 [16]: 1.08E−6 Molar
LC50 [16]: >1.00E−4 Molar
TGI [16]: >1.00E−4 Molar
Percent Growth ([16]; Log10 Concentration −4.0 Molar): 15%
Percent Growth ([16]; Log10 Concentration −5.0 Molar): 25%
Percent Growth ([16]; Log10 Concentration −6.0 Molar): 51%
Percent Growth ([16]; Log10 Concentration −7.0 Molar): 97%
Percent Growth ([16]; Log10 Concentration −8.0 Molar): 105%
GI50 [17]: 3.81E−8 Molar
LC50 [17]: >1.00E−4 Molar
TGI [17]: >1.00E−4 Molar
Percent Growth ([17]; Log10 Concentration −4.0 Molar): 6%
Percent Growth ([17]; Log10 Concentration −5.0 Molar): 13%
Percent Growth ([17]; Log10 Concentration −6.0 Molar): 13%
Percent Growth ([17]; Log10 Concentration −7.0 Molar): 23%
Percent Growth ([17]; Log10 Concentration −8.0 Molar): 87%
GI50 [18]: 1.35E−6 Molar
LC50 [18]: >1.00E−4 Molar
TGI [18]: >1.00E−4 Molar
Percent Growth ([18]; Log10 Concentration −4.0 Molar): 39%
Percent Growth ([18]; Log10 Concentration −5.0 Molar): 32%
Percent Growth ([18]; Log10 Concentration −6.0 Molar): 53%
Percent Growth ([18]; Log10 Concentration −7.0 Molar): 101%
Percent Growth ([18]; Log10 Concentration −8.0 Molar): 103%
IC50 [19]: 9.7 µM

Reference: patent US9422297B2, “Tricyclic compounds having cytostatic and/or cytotoxic activity and methods of use thereof” (Duquesne University of the Holy Ghost, priority 2007, dated 2016)
